≈ marks a conversion by molar mass, not a printed value.
Columns and labels:
Plasmodium falciparum = test: Antiplasmodial activity against chloroquine-sensitive Plasmodium falciparum MRC 20 infected in human red blood cells measured up to 24 hr; assay type: functional, organism-based; conditions: MRC 20, 24 h
[1] = Haemolytic activity against Homo sapiens (human) RBC at >25 ug/ml up to 24 hr; assay type: ADME, cell-based; conditions: erythrocyte
[2] = Haemolytic activity against Homo sapiens (human) RBC at >50 ug/ml up to 24 hr; assay type: ADME, cell-based; conditions: erythrocyte
[3] = Haemolytic activity against Homo sapiens (human) RBC at >12.5 ug/ml up to 24 hr; assay type: ADME, cell-based; conditions: erythrocyte

Row | IC50 (Plasmodium falciparum) | Compound | Activity [1] | Activity [2] | Activity [3]
1 | 5.01 µg/mL (≈ 12.5 µM) | COc1ccc(-c2cc(-c3ccc(OCc4ccccc4)cc3O)nc(N)n2)cc1 | Toxic | – | –
2 | 16.7 µg/mL (≈ 43 µM) | Nc1nc(-c2ccc(F)cc2)cc(-c2ccc(OCc3ccccc3)cc2O)n1 | – | Toxic | –
3 | 18.9 µg/mL (≈ 46.7 µM) | Nc1nc(-c2ccc(OCc3ccccc3)cc2O)cc(-c2ccccc2Cl)n1 | Toxic | – | –
4 | 15.2 µg/mL (≈ 49 µM) | COc1ccc(-c2cc(-c3ccc(F)cc3)nc(N)n2)c(O)c1 | – | Toxic | –
5 | 25.5 µg/mL (≈ 82 µM) | COc1ccc(O)c(-c2cc(-c3ccc(F)cc3)nc(N)n2)c1 | – | Toxic | –
6 | 9.53 µg/mL (≈ 29.1 µM) | COc1ccc(O)c(-c2cc(-c3cccc(Cl)c3)nc(N)n2)c1 | Toxic | – | –
7 | 1.78 µg/mL (≈ 5.5 µM) | COc1ccc(-c2cc(-c3ccc(OC)cc3O)nc(N)n2)cc1 | – | – | Toxic
8 | 14.9 µg/mL (≈ 38.8 µM) | Cc1ccc(-c2cc(-c3ccc(OCc4ccccc4)cc3O)nc(N)n2)cc1 | Toxic | – | –
9 | > 25 µg/mL | COc1cccc(-c2cc(-c3cc(OC)ccc3O)nc(N)n2)c1 | – | Toxic | –
10 | 8.71 µg/mL (≈ 28.3 µM) | COc1ccc(-c2cc(-c3ccc(C)cc3)nc(N)n2)c(O)c1 | Toxic | – | –
11 | – | CCN(CC)CCCC(C)Nc1ccnc2cc(Cl)ccc12 (stereo not drawn) [CHLOROQUINE] | Toxic | – | –
12 | 21.3 µg/mL (≈ 65.1 µM) | COc1ccc(-c2cc(-c3ccc(Cl)cc3)nc(N)n2)c(O)c1 | Toxic | – | –
13 | 1.61 µg/mL (≈ 3.75 µM) | COc1ccc(-c2cc(-c3ccc(OCc4ccccc4)cc3O)nc(N)n2)cc1OC | – | – | Toxic
14 | 29.3 µg/mL (≈ 89.5 µM) | COc1ccc(O)c(-c2cc(-c3ccccc3Cl)nc(N)n2)c1 | – | Toxic | –
15 | 35.6 µg/mL (≈ 92.7 µM) | Cc1cccc(-c2cc(-c3ccc(OCc4ccccc4)cc3O)nc(N)n2)c1 | Toxic | – | –
16 | 7.61 µg/mL (≈ 19.1 µM) | COc1cccc(-c2cc(-c3ccc(OCc4ccccc4)cc3O)nc(N)n2)c1 | Toxic | – | –

Row | Compound | IC50 (Plasmodium falciparum) | Activity [1] | Activity [2] | Activity [3]
17 | C=C[C@H]1C[N@@]2CC[C@H]1C[C@H]2[C@H](O)c1ccnc2ccc(OC)cc12 [QUININE] | 29 µg/mL (≈ 89.4 µM) | Toxic | – | –

Reference: ChEMBL document CHEMBL3045180, “Synthesis of novel 4,6-diaryl-2-aminopyrimidines as potential antiplasmodial agents” (Med Chem Res, 2013)
